# From PubChem BioAssay AID1963834 (Molecular Pharmacology Branch, DTP, NCI, 2024)
# Test system: 873145-292-R-J1-PDC complex spheroid viability
# Assay: Anticancer human tumor 873145-292-R-J1-PDC patient-derived renal clear cell carcinoma cell line growth inhibition [POLQ]
# Conditions: for IC50: curve of first compound; for viability, T/C: stronger effect = lower value
# Method: Multicellular complex tumor spheroid response to Polymerase (POL) inhibitors (novobiocin, ART-558, RP6685) in combination with a variety of drugs and investigational agents in selected tumor cell lines
# The POL inhibitors (novobiocin, ART-558, and RP6685) were evaluated both individually and in combination with standard of care and investigational anticancer small molecules within a complex spheroid model of solid tumors. . Complex spheroids include a stromal component modeled by human endothelial cells (HUVEC) and fibroblasts modeled by human mesenchymal stem cells (MSCs). The concentration ranges selected for each drug and investigational agent were based upon clinically achievable concentrations if the clinical Cmax of the agent was known.
# Compounds. The drugs and investigational agents: novobiocin (NSC847541), ART-558 (NSC835418), RP-6685 (NSC848927), peposertib (NSC802822), ceralasertib (NSC780249), elimusertib (NSC800525), camonsertib (NSC841442), AZD-1390 (NSC803789), olaparib (NSC753686), talazoparib (NSC767125), rucaparib (NSC756644), sotorasib (NSC818433), MRTX-1133 (NSC836407), SN-38 (NSC673596), topotecan (NSC609699), epotoside (NSC141540), doxorubicin (NSC123127), gemcitabine (NSC613327), 5-fluorouracil (NSC19893), paclitaxel (NSC125973), vemurafenib (NSC761431), MSA-2 (NSC828583), SN-011 (NSC837082), adavosertib (NSC754352), prexasertib (NSC758257), carboplatin (NSC241240) and oxaliplatin (NSC266046), were obtained from the National Cancer Institute (NCI) Developmental Therapeutics Program Chemical Repository (21). The FDA-approved anticancer drug set is available from the Developmental Therapeutics Program at https://dtp.cancer.gov/organization/dscb/obtaining/. […] The stock solutions were prepared in dimethyl sulfoxide (DMSO, Sigma-Aldrich, St. Louis, MO, cat. D2650), except for the platinum compounds which were prepared in saline (Quality Biological, Gaithersburg, MD, cat. 114-055-101), at 800-fold the tested concentration and stored at -70 degrees C prior to their use. All drugs and investigational agents were tested over a range starting from a high concentration at or near the clinical Cmax and decreasing in half-log increments. If the clinical Cmax for an agent had not been determined, the highest concentration tested was 10 microM, except for SN-38, which was tested at a high concentration of 1 microM.
# Cell Culture. All cells were maintained in an incubator at 37 degrees C and 5% CO2 with 95% humidity. The PDC lines were cultured according to standard operating procedures established by the NCI PDMR (https://pdmr.cancer.gov). Table 3 of the manuscript, lists the cell lines along with the number of the three cell types plated to form the mct-spheroids and media for tumor cell growth. After thawing, all PDC lines, except 997537-175-T-J1-PDC and 415267-285-R-J2-PDC, were cultured in Matrigel-coated flasks prepared with a working solution of 1X Ham's F-12 nutrient mix, without supplementation (Thermo Fisher Scientific, cat. 11765054), 100 U/mL penicillin-streptomycin (Thermo Fisher Scientific, cat. 15140122), and 2.5% Matrigel (Corning Inc., Corning, NY, cat. 354248) for the first three passages. The two PDC lines 997537-175-T-J1-PDC and 415267-285-R-J2-PDC were cultured on uncoated flasks. The 857933-349-R-J2-PDC line was cultured in 6C/Colon 1B media containing advanced DMEM/F-12 (Thermo Fisher Scientific, cat. 12634028), 10 mM HEPES (Thermo Fisher Scientific, cat. 15630080), 1X GlutaMAX supplement (Thermo Fisher Scientific, cat. 35050061), 0.1 mg/mL primocin (InvivoGen, San Diego, CA, cat. ant-pm-2), 10% defined fetal bovine serum, heat inactivated (HyClone Laboratories Inc., Logan, UT, cat. SH30070.03HI), 50% L-WRN conditioned media (ATCC, cat. CRL-3276), 1.25 mM N-Acetyl-L-cysteine (Sigma-Aldrich, cat. A9165), 10 mM nicotinamide (Sigma-Aldrich, cat. N0636), 1X B-27 supplement (Thermo Fisher Scientific, cat. 17504044), 1X N-2 supplement (Thermo Fisher Scientific, cat. […]
# 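Further: spheroids exposed to compounds for 7 days before viability readout.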
# 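Wherever viability, T/C is given: luminescence signal used as surrogate for viable cell content; 100% = DMSO vehicle control viability.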
smiles,measurement,setting,value
O=c1[nH]cc(F)c(=O)[nH]1 + COC1C(OC(N)=O)C(O)C(Oc2ccc3c(O)c(NC(=O)c4ccc(O)c(CC=C(C)C)c4)c(=O)oc3c2C)OC1(C)C,IC50,second compound 0.0316 µM,> 10 µM
same,IC50,second compound 0.1 µM,> 10 µM
same,IC50,second compound 0.316 µM,> 10 µM
same,IC50,second compound 1 µM,> 10 µM
same,IC50,second compound 3.16 µM,> 10 µM
same,IC50,second compound 10 µM,> 10 µM
same,"viability, T/C","second compound 0.0316 µM, first compound 0.0316 µM",100%
same,"viability, T/C","second compound 0.0316 µM, first compound 0.1 µM",92.8%
same,"viability, T/C","second compound 0.0316 µM, first compound 0.316 µM",90.8%
same,"viability, T/C","second compound 0.0316 µM, first compound 1 µM",110%
same,"viability, T/C","second compound 0.0316 µM, first compound 3.16 µM",87.9%
same,"viability, T/C","second compound 0.0316 µM, first compound 10 µM",96.8%
same,"viability, T/C","second compound 0.1 µM, first compound 0.0316 µM",105%
same,"viability, T/C","second compound 0.1 µM, first compound 0.1 µM",103%
same,"viability, T/C","second compound 0.1 µM, first compound 0.316 µM",85.2%
same,"viability, T/C","second compound 0.1 µM, first compound 1 µM",95.4%
same,"viability, T/C","second compound 0.1 µM, first compound 3.16 µM",89.2%
same,"viability, T/C","second compound 0.1 µM, first compound 10 µM",89.1%
same,"viability, T/C","second compound 0.316 µM, first compound 0.0316 µM",101%
same,"viability, T/C","second compound 0.316 µM, first compound 0.1 µM",90%
same,"viability, T/C","second compound 0.316 µM, first compound 0.316 µM",87.1%
same,"viability, T/C","second compound 0.316 µM, first compound 1 µM",87.4%
same,"viability, T/C","second compound 0.316 µM, first compound 3.16 µM",109%
same,"viability, T/C","second compound 0.316 µM, first compound 10 µM",91.3%
same,"viability, T/C","second compound 1 µM, first compound 0.0316 µM",88.9%
same,"viability, T/C","second compound 1 µM, first compound 0.1 µM",89.8%
same,"viability, T/C","second compound 1 µM, first compound 0.316 µM",86.2%
same,"viability, T/C","second compound 1 µM, first compound 1 µM",87.7%
same,"viability, T/C","second compound 1 µM, first compound 3.16 µM",100%
same,"viability, T/C","second compound 1 µM, first compound 10 µM",88.5%
same,"viability, T/C","second compound 3.16 µM, first compound 0.0316 µM",95%
same,"viability, T/C","second compound 3.16 µM, first compound 0.1 µM",95.5%
same,"viability, T/C","second compound 3.16 µM, first compound 0.316 µM",90.2%
same,"viability, T/C","second compound 3.16 µM, first compound 1 µM",92.3%
same,"viability, T/C","second compound 3.16 µM, first compound 3.16 µM",101%
same,"viability, T/C","second compound 3.16 µM, first compound 10 µM",91.3%
same,"viability, T/C","second compound 10 µM, first compound 0.0316 µM",91.3%
same,"viability, T/C","second compound 10 µM, first compound 0.1 µM",91.3%
same,"viability, T/C","second compound 10 µM, first compound 0.316 µM",92.5%
same,"viability, T/C","second compound 10 µM, first compound 1 µM",96.3%
same,"viability, T/C","second compound 10 µM, first compound 3.16 µM",93.1%
same,"viability, T/C","second compound 10 µM, first compound 10 µM",89.9%
